From ChEMBL document CHEMBL1201862, “PubChem BioAssay data set” (2004) come the findings set out here.

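Test compounds were applied to cells in 96-well plates for 48 hours at 5 doses. Here, GI50 denotes the concentration required for 50% inhibition of growth.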 Activity calls are given as the source filed them. Rule as the data show it: active = GI50 up to about 1.1 µM and inactive = higher. Some results are limits rather than exact numbers.

What all share (experiment): inhibition of tumour cell growth, NCI panel, 48 h
Test [1] has as its system EKVX.
Test [2] deals with HCC 2998.
The test system of test [3] is HCT-15.
Test [4] has as its system HOP-92.
Test [5] relates to MDA-MB-231.
Test [6] concerns Malme-3M.
Test [7] relates to NCI-H226.
Test [8] relates to NCI-H23.
For test [9], the system named is NCI-H460.
Test [10] relates to NCI/ADR-RES.
Test [11] relates to OVCAR-5.
Test [12] concerns OVCAR-8.
The test system of test [13] is RPMI-8226.
For test [14], the system named is SF-539.
In test [15] the test system is SK-MEL-2.
In test [16] the test system is SNB-75.
Test [17] deals with SR.
The subject of test [18] is T47D.
The subject of test [19] is UACC-62.

Regarding `CNC1=C/C(=N/C2=CC(=N/C(=C\C#N)C(C)(C)O)/OC2(C)C)OC1(C)C`, the GI50 in [1] is 13.7 µM (inactive); in [2], 29.2 µM (inactive); in test [3] it was 5.31 µM; in test [4], 11.9 µM (inactive); in [5], 9.95 µM (inactive); in test [6], 25.2 µM (inactive). The GI50 in test [7] is 20.8 µM (inactive); in [8], 33.3 µM (inactive); in test [9], 5.97 µM (inactive); in test [10] it was 40.4 µM (inactive); in [11] it was 60.4 µM (inactive); in test [12] it was 9.84 µM (inactive). Besides, the GI50 in [13] was 4.43 µM (inactive); in [14], 33.1 µM (inactive); in test [15], 44.4 µM (inactive); in test [16] it was 6.76 µM (inactive); in [17], 4.9 µM (inactive); in test [18], 6.78 µM (inactive). Besides, the GI50 in test [19] was 7.91 µM (inactive).
In the case of `CCCCCCCCCCCCCCCC[N+](C)(C)CCl`, the GI50 was 8.61 µM (inactive) in test [1]; 1.66 µM (inactive) in test [2]; 3.59 µM in test [3]; 1.17 µM (inactive) in test [4]; 2.02 µM (inactive) in test [5]; 2.65 µM (inactive) in [6]. Moreover, the GI50 in [7] was 2.12 µM (inactive); in [8], 4.19 µM (inactive); in test [9], 1.77 µM (inactive); in test [10], 20.6 µM (inactive); in test [11] it was 6.89 µM (inactive); in [12] it was 2.61 µM (inactive). The GI50 in test [13] is 1.76 µM (inactive); in test [14], 2.4 µM (inactive); in [15] it was 13.3 µM (inactive); in test [16], 1.86 µM (inactive); in test [17], 1.99 µM (inactive); in [18] it was 3.57 µM (inactive). Also, in test [19], the GI50 was 2.29 µM (inactive).
With `COc1cc2nc3n(c2cc1OC)C(O)c1c(Cl)nc(SC)nc1S3` (configuration not stated), the GI50 in [1] was 15.4 µM (inactive); in test [2] it was 4.21 µM (inactive); in test [3], 2.64 µM; in [4] it was 12.2 µM (inactive); in test [5] it was 4.42 µM (inactive); in test [6] it was 1.2 µM (inactive). Besides, the GI50 was 3.35 µM (inactive) in test [7]; 4.21 µM (inactive) in [8]; 3.44 µM (inactive) in [9]; 3.36 µM (inactive) in [10]; 16.6 µM (inactive) in test [11]; 2.59 µM (inactive) in test [12]. For the same compound, the GI50 in [13] was 2.16 µM (inactive); in test [14], 2.4 µM (inactive); in [15], 2 µM (inactive); in [16] it was 4.47 µM (inactive); in test [17], 3.68 µM (inactive); in [18], 3.8 µM (inactive). For the same compound, the GI50 in test [19] is 2.19 µM (inactive).
On to `CCOC(=O)C(NC(=O)c1ccccc1)(c1ccc(S(=O)(=O)Nc2onc(C)c2C)cc1)C(F)(F)F` (configuration not stated), for which the GI50 in test [1] is > 100 µM (inactive); in [2], > 100 µM (inactive); in test [3], > 100 µM; in [4], > 100 µM (inactive); in [5] it was > 100 µM (inactive); in test [6], > 100 µM (inactive). Also, the GI50 in [7], in [8], in test [9], in test [10], in test [11] and in test [12] was > 100 µM (inactive) throughout. Also, the GI50 in test [13], in test [14], in [15], in test [16], in test [17] and in [18] was > 100 µM (inactive) throughout. Further, in test [19], the GI50 is > 100 µM (inactive).
As to `Cc1cc(C)nc(NS(=O)(=O)c2ccc(NNC(=O)c3cccc4c(=O)c5ccccc5[nH]c34)cc2)n1`, the GI50 in [1] is 23.1 µM (inactive); in test [2], 44.9 µM (inactive); in [3], 48.8 µM; in test [4], 11.6 µM (inactive); in test [5], 37.6 µM (inactive); in [6] it was 49.9 µM (inactive). Moreover, the GI50 in test [7] was 51.1 µM (inactive); in [8] it was 63 µM (inactive); in test [9], 67.6 µM (inactive); in test [10] it was > 100 µM (inactive); in [11], 21.5 µM (inactive); in test [12], 83.4 µM (inactive). In addition, the GI50 in test [13] was 57.5 µM (inactive); in test [14], > 100 µM (inactive); in test [15], 0.0493 µM (active); in [16], 19.5 µM (inactive); in test [17], 37.5 µM (inactive); in [18], 26.1 µM (inactive). In addition, the GI50 in [19] is 71.6 µM (inactive).
As for `COc1ccc(-n2sc3ncccc3c2=O)cc1`, the GI50 in [1] was 14.8 µM (inactive); in [2], 46.5 µM (inactive); in [3], 22.6 µM; in test [4], 27.7 µM (inactive); in [5] it was 21.7 µM (inactive); in [6], 15.8 µM (inactive). In addition, the GI50 was 39.4 µM (inactive) in [7]; 19.3 µM (inactive) in [8]; 34.6 µM (inactive) in test [9]; 25 µM (inactive) in test [10]; 24.8 µM (inactive) in test [11]; 26.8 µM (inactive) in [12]. Besides, the GI50 in test [13] is 28.3 µM (inactive); in test [14] it was 17.3 µM (inactive); in [15], > 100 µM (inactive); in test [16] it was 23.6 µM (inactive); in test [17] it was 13.2 µM (inactive); in test [18] it was 17.7 µM (inactive). For the same compound, the GI50 in test [19] is 36.4 µM (inactive).
Regarding `O=c1[nH]c2cc3cccnc3c(Cl)c2nc1C(F)(F)F`, the GI50 in [1] was 9.91 µM (inactive); in test [2], 42 µM (inactive); in test [3], 44.5 µM; in [4], 7.16 µM (inactive); in test [5], 30.3 µM (inactive); in test [6], 77.8 µM (inactive). The GI50 in test [7] is 30.1 µM (inactive); in [8], 25 µM (inactive); in test [9], 27.5 µM (inactive); in test [10], 33.3 µM (inactive); in test [11] it was > 100 µM (inactive); in [12] it was 28.8 µM (inactive). In addition, the GI50 in test [13] was 26.5 µM (inactive); in [14], 40.6 µM (inactive); in test [15], 48.2 µM (inactive); in [16], 27.5 µM (inactive); in [17] it was 28.2 µM (inactive); in [18], 33.6 µM (inactive). Also, the GI50 in [19] was 22 µM (inactive).
In the case of `S=C(/N=C1/NCC(CN2CCN(c3ccccc3)CC2)O1)Nc1ccccc1` (configuration not stated), the GI50 in test [1] is > 100 µM (inactive); in test [2], 57.9 µM (inactive); in test [3], 32.4 µM; in test [4], 92.3 µM (inactive); in [5] it was 35.9 µM (inactive); in test [6], > 100 µM (inactive). Also, the GI50 is > 100 µM (inactive) in test [7]; 29.3 µM (inactive) in test [8]; 23.3 µM (inactive) in test [9]; > 100 µM (inactive) in [10]; > 100 µM (inactive) in test [11]; > 100 µM (inactive) in test [12]. In addition, the GI50 in test [13] was 42.3 µM (inactive); in test [14], 34.4 µM (inactive); in test [15], 35.6 µM (inactive); in [16] it was > 100 µM (inactive); in test [17], 34.6 µM (inactive); in test [18], 29.7 µM (inactive). In [19], the GI50 was 39.7 µM (inactive).
